From ChEMBL document CHEMBL3880418, “Pyripyropene derivative having ACAT2 inhibiting activity and stable to metabolizing enzymes” (2013)

What was measured:
[1] = Half life in Sprague-Dawley rat liver microsomes at 6 ug/ml by HPLC method; type: ADME
[2] = target: T1, Sterol O-acyltransferase 2 (Mus musculus) (UniProt O88908); test: Ratio of compound IC50 to PRD 043 IC50 for ACAT2 in mouse hepatic microsomal membranes; type: cell membranes; conditions: Liver, Microsomal Membrane
T1 sequence (whole entry): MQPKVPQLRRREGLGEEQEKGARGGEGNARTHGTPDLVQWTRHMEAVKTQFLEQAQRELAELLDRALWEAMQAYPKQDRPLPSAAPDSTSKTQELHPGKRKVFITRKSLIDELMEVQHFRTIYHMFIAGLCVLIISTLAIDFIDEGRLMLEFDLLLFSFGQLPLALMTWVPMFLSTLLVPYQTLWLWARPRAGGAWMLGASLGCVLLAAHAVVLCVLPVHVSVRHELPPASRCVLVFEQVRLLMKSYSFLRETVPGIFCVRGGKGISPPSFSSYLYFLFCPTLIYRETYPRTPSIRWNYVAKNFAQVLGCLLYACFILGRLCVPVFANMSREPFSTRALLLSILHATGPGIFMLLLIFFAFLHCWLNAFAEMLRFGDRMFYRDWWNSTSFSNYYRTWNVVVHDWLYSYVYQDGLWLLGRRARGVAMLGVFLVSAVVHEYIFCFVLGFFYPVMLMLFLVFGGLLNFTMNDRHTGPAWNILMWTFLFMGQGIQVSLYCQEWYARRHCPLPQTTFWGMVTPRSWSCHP

Row | SMILES | half-life at 6 ug/ml [1] | Ratio IC50 [2]
1 | CC(=O)O[C@H]1CC[C@@]2(C)[C@@H](C[C@H](OC(=O)c3ccc(C#N)cc3)[C@@]3(C)Oc4cc(-c5cccnc5)oc(=O)c4[C@H](O)[C@H]23)[C@]1(C)COC(=O)C(C)C | > 9 h | < 20
2 | CCCCCC(=O)OC[C@@]1(C)[C@@H]2C[C@H](OC(=O)c3ccc(C#N)cc3)[C@@]3(C)Oc4cc(-c5cccnc5)oc(=O)c4[C@H](O)[C@@H]3[C@@]2(C)CC[C@@H]1OC(=O)CCCCC | > 9 h | < 20
3 | COC(=O)[C@@]1(C)[C@@H](OC(C)=O)CC[C@]2(C)[C@H]3[C@@H](O)c4c(cc(-c5cccnc5)oc4=O)O[C@]3(C)[C@@H](OC(=O)c3ccc(C#N)cc3)C[C@H]21 | > 9 h | < 20
4 | Cc1ccccc1[C@@H]1OC[C@@]2(C)[C@@H]3C[C@H](OC(=O)c4ccc(C#N)cc4)[C@@]4(C)Oc5cc(-c6cccnc6)oc(=O)c5[C@H](O)[C@@H]4[C@@]3(C)CC[C@@H]2O1 | > 9 h | < 20
